Measured values: US12552835B2, “Composition comprising Regentide-012 or Regentide-013 for improving skin condition” (NINEBIOPHARM CO., LTD., priority 2020, dated 2026)
Where a SMILES comes first, the peptide text is derived from it. Bridges are numbered along the chain shown (N, C = ends).

Legend:
Type in all cases: cell-based, human
CCD-986Sk [1] = assay: Cytotoxicity evaluation (CCK8 cell viability) in fibroblasts; conditions: 5 μM or 10 μM, 48 hours, FBS-free medium
Experimental: (§1) The cytotoxicities of Regentide-012 and Regentide-013 prepared in Example 1 above were evaluated. Specifically, cytotoxicities were measured in HaCaT cells, which are human epidermal keratinocytes, and CCD-986Sk, which is human fibroblasts. Keratinocytes were dispensed at 3×10^3 cells/well and fibroblasts were dispensed at 5×10^3 cells/well in a 96-well plate, and then cultured in cell culture conditions for 24 hours in a medium containing 10% FBS. After culturing, Regentide-012 and Regentide-013 were added to an FBS-free medium in an amount of 5 μM or 10 μM, and these were cultured for 48 hours. Thereafter, 10 μl per well of CCK8 reaction solution (Dojindo Molecular Technologies, Kumamoto, Japan) was treated and reacted for 4 hours, and then absorbance was measured at 450 nm. The average absorbance value for each sample group was obtained, and the cell viability was evaluated by comparing it with the absorbance values of cells that had not been treated with Regentide-012 and Regentide-013 as a control group.

HaCaT cells [2] = assay: Cytotoxicity evaluation (CCK8 cell viability) in epidermal keratinocytes; conditions: 5 μM or 10 μM, 48 hours, FBS-free medium
Experimental: as §1

HaCaT cells [3] = assay: Epidermal keratinocyte growth promoting efficacy (cell number); conditions: 0.5 μM, after 8 days
Experimental: (§2) In order to confirm the cell proliferation abilities of Regentide-012 and Regentide-013, HaCaT cells, which are epidermal keratinocytes, were dispensed at 1×10^4 cells/well in a 6-well plate, and then cultured for 6 hours in a medium containing 10% FBS. Thereafter, Regentide-012 and Regentide-013 were added at various concentrations (0, 0.1, 0.2, or 0.5 μM) and cultured for 8 days. The medium was replaced with a medium containing Regentide-012 and Regentide-013 in various concentrations every day, and the number of cells was measured at intervals of two days.

HaCaT cells [4] = assay: Wound recovery effect of epidermal keratinocytes (insert gap migration); conditions: 1 and 2.5 μM, FBS-free medium, 16 and 40 hours
Experimental: (§3) In order to confirm the wound recovery effects of Regentide-012 and Regentide-013, HaCaT cells, which are epidermal keratinocytes, were attached to a 6-well plate with an adhesive insert (Insert, Ibidi, Wisconsin, USA). The cells were dispensed at 6×10^4 cells/well in each well of the insert, and then cultured in cell culture conditions for 24 hours in a medium containing 2% FBS. Thereafter, the insert was removed and washed once using 1×DPBS. Regentide-012 and Regentide-013 were added to the medium at various concentrations (0, 1, and 2.5 μM) in an FBS-free medium, and cell images were photographed at 100 times using a microscope (Nikon Eclipse E100, Tokyo, Japan) after 16 and 40 hours.

CCD986Sk cells = assay: Fibroblast growth promoting efficacy (cell number); conditions: 0.5 μM, after 8 days
Experimental: as §2, with “CCD986Sk” for “HaCaT”, “fibroblasts,” for “epidermal keratinocytes,”

CCD-986Sk [5] = assay: Wound recovery effect of fibroblasts (insert gap migration); conditions: 1 and 2.5 μM, FBS-free medium, 16 and 40 hours
Experimental: as §3, with “CCD-986sk, which is dermal” for “HaCaT”, “was” for “which are epidermal keratinocytes, were”, “[…] was” for “Regentide-012 and Regentide-013 were”, “measured” for “photographed”

Row | Compound | cytotoxicity to fibroblasts (CCD-986Sk [1]) | cytotoxicity to epidermal keratinocytes (HaCaT cells [2]) | cell growth rate higher than the control group (HaCaT cells [3]) | cell numbers and cell migration abilities of epidermal keratinocytes (HaCaT cells [4]) | cell growth rate higher than the control group (CCD986Sk cells) | cell numbers and cell migration abilities of fibroblasts (CCD-986Sk [5])
1 | CC[C@H](C)[C@H](NC(=O)[C@H](CCC(N)=O)NC(=O)[C@H](CCC(=O)O)NC(=O)[C@@H](N)CCCCN)C(=O)NCC(=O)N[C@@H](CCCCN)C(=O)N[C@H]1CSSC[C@@H](C(=O)N[C@@H](CCCNC(=N)N)C(=O)N[C@@H](CCCNC(=N)N)C(=O)N[C@@H](CCCCN)C(=O)N[C@@H](CCCCN)C(=O)O)NC(=O)[C@H](Cc2c[nH]c3ccccc23)NC(=O)[C@H](CCCCN)NC(=O)[C@H](CCCNC(=N)N)NC(=O)CNC(=O)[C@H](CCCNC(=N)N)NC(=O)[C@H]([C@@H](C)O)NC(=O)[C@H](CO)NC1=O [Regentide-012, KEQIGKCSTRGRKWCRRKK] (H-KEQIGKCSTRGRKWCRRKK-OH; disulfide 7-15) | not toxic | not toxic |  |  |  | 
2 | CC[C@H](C)[C@H](NC(=O)[C@H](CCC(N)=O)NC(=O)[C@H](CCC(=O)O)NC(=O)[C@H](CCCCN)NC(C)=O)C(=O)NCC(=O)N[C@@H](CCCCN)C(=O)N[C@H]1CSSC[C@@H](C(=O)N[C@@H](CCCNC(=N)N)C(=O)N[C@@H](CCCNC(=N)N)C(=O)N[C@@H](CCCCN)C(=O)N[C@@H](CCCCN)C(N)=O)NC(=O)[C@H](Cc2c[nH]c3ccccc23)NC(=O)[C@H](CCCCN)NC(=O)[C@H](CCCNC(=N)N)NC(=O)CNC(=O)[C@H](CCCNC(=N)N)NC(=O)[C@H]([C@@H](C)O)NC(=O)[C@H](CO)NC1=O [Regentide-013, Ac-KEQIGKCSTRGRKWCRRKK-NH2] (Ac-KEQIGKCSTRGRKWCRRKK-NH2; disulfide 7-15) | not toxic | not toxic | 60.8% | increased the cell numbers and cell migration abilities | 43.9% | increased the cell numbers and cell migration abilities
